PubChem BioAssay (NCI)
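At the GI50, growth is halved. TGI is the concentration that stops growth completely.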

Experiments:
Assay in all cases: DTP human tumour cell line panel, 384-well format
[1] = tested on: 786-0 renal
[2] = tested on: A498 renal
[3] = tested on: A549 NSCLC
[4] = tested on: BT-549 breast
[5] = tested on: CAKI-1 renal
[6] = tested on: COLO 205 colon
[7] = tested on: EKVX NSCLC
[8] = tested on: HCC-2998 colon
[9] = tested on: HCT-116 colon
[10] = tested on: HCT-15 colon
[11] = tested on: HOP-92 NSCLC
[12] = tested on: HS 578T breast
[13] = tested on: IGROV1 ovarian
[14] = tested on: K-562 leukemia
[15] = tested on: KM12 colon
[16] = tested on: LOX IMVI melanoma
[17] = tested on: MALME-3M melanoma
[18] = tested on: MDA-MB-231 breast
[19] = tested on: MDA-MB-435 melanoma
[20] = tested on: NCI-H226 lung
[21] = tested on: NCI-H23 lung
[22] = tested on: NCI-H322M lung
[23] = tested on: NCI-H460 NSCLC
[24] = tested on: NCI-H522 lung
[25] = tested on: NCI/ADR-RES ovarian
[26] = tested on: OVCAR-3 ovarian
[27] = tested on: OVCAR-4 ovarian
[28] = tested on: OVCAR-5 ovarian
[29] = tested on: OVCAR-8 ovarian
[30] = tested on: PC-3 prostate
[31] = tested on: RPMI-8226 leukemia
[32] = tested on: RXF 393 renal
[33] = tested on: SK-MEL-28 melanoma
[34] = tested on: SK-MEL-5 melanoma
[35] = tested on: SK-OV-3 ovarian
[36] = tested on: SNB-19 CNS
[37] = tested on: SNB-75 CNS
[38] = tested on: SW-620 colon
[39] = tested on: T-47D breast
[40] = tested on: TK-10 renal
[41] = tested on: UACC-257 melanoma
[42] = tested on: UO-31 renal
[43] = tested on: ACHN renal
[44] = tested on: CCRF-CEM leukemia
[45] = tested on: DU-145 prostate
[46] = tested on: HL-60(TB) leukemia
[47] = tested on: HOP-62 NSCLC
[48] = tested on: HT29 colon
[49] = tested on: M14 melanoma
[50] = tested on: MCF7 breast
[51] = tested on: MDA-MB-468 breast
[52] = tested on: MOLT-4 leukemia
[53] = tested on: SF-268 CNS
[54] = tested on: SF-295 CNS
[55] = tested on: SF-539 CNS
[56] = tested on: SN12C renal
[57] = tested on: SR leukemia
[58] = tested on: UACC-62 melanoma

## CCc1c2c(nc3ccc(O)cc13)-c1cc3c(c(=O)n1C2)COC(=O)[C@]3(O)CC
[1]
  TGI: 0.0125 µM
[2]
  TGI: 0.129 µM
[3]
  GI50: 0.0344 µM
  TGI: 1.06 µM
[4]
  TGI: 0.0264 µM
[5]
  TGI: 0.0926 µM
[6]
  TGI: 1.06 µM
[7]
  GI50: 0.0897 µM
  TGI: 2.63 µM
[8]
  TGI: 0.0754 µM
[9]
  TGI: 0.114 µM
[10]
  TGI: 0.137 µM
[11]
  TGI: 0.0644 µM
[12]
  GI50: 0.14 µM
  TGI: 1.93 µM
[13]
  GI50: 0.0247 µM
  TGI: 1.05 µM
[14]
  TGI: 0.292 µM
[15]
  GI50: 0.0205 µM
  TGI: 0.153 µM
[16]
  TGI: 0.0238 µM
[17]
  GI50: 0.0131 µM
  TGI: 0.297 µM
[18]
  GI50: 0.128 µM
  TGI: 3.8 µM
[19]
  GI50: 0.0331 µM
  TGI: 0.266 µM
[20]
  TGI: 0.135 µM
[21]
  TGI: 0.0133 µM
[22]
  GI50: 0.0223 µM
  TGI: 0.12 µM
[23]
  TGI: 0.0156 µM
[24]
  TGI: 0.0316 µM
[25]
  TGI: 0.0303 µM
[26]
  TGI: 0.0364 µM
[27]
  GI50: 0.0478 µM
  TGI: 0.224 µM
[28]
  GI50: 0.0398 µM
  TGI: 0.249 µM
[29]
  TGI: 0.0478 µM
[30]
  GI50: 0.115 µM
  TGI: 4.66 µM
[31]
  TGI: 0.0616 µM
[32]
  TGI: 0.0264 µM
[33]
  TGI: 0.156 µM
[34]
  TGI: 0.0169 µM
[35]
  TGI: 0.0175 µM
[36]
  TGI: 0.0163 µM
[37]
  TGI: 0.0141 µM
[38]
  TGI: 0.239 µM
[39]
  TGI: 0.0155 µM
[40]
  GI50: 0.0351 µM
  TGI: 0.919 µM
[41]
  GI50: 0.0118 µM
  TGI: 0.285 µM
[42]
  TGI: 0.0495 µM

## CCCCCCCCCCCCCCCCCCOP(=O)([O-])OC1CC[N+](C)(C)CC1
[1]
  GI50: 7.36 µM
  TGI: 31.3 µM
[2]
  GI50: 17.2 µM
  TGI: 92.2 µM
[3]
  GI50: 14.4 µM
  TGI: 28 µM
[43]
  GI50: 15.9 µM
  TGI: 30.6 µM
[4]
  GI50: 11.5 µM
  TGI: 24.3 µM
[5]
  GI50: 10.8 µM
  TGI: 24.5 µM
[44]
  GI50: 1.8 µM
  TGI: 4.79 µM
[6]
  GI50: 1.29 µM
  TGI: 16 µM
[45]
  GI50: 36.4 µM
  TGI: > 100 µM
[7]
  GI50: 32.5 µM
  TGI: > 100 µM
[8]
  GI50: 4.59 µM
  TGI: 26 µM
[10]
  GI50: 3.21 µM
  TGI: 11 µM
[46]
  GI50: 1.45 µM
  TGI: 2.85 µM
[47]
  GI50: 11.4 µM
  TGI: 28.4 µM
[11]
  GI50: 11.6 µM
  TGI: 24.6 µM
[12]
  GI50: 32.8 µM
  TGI: > 100 µM
[48]
  GI50: 2.9 µM
  TGI: 12.9 µM
[13]
  GI50: 1.67 µM
  TGI: 3.99 µM
[14]
  GI50: 61.5 µM
  TGI: > 100 µM
[15]
  GI50: 0.757 µM
  TGI: 10.1 µM
[16]
  GI50: 16.9 µM
  TGI: 54 µM
[49]
  GI50: 21.1 µM
  TGI: 62.8 µM
[17]
  GI50: > 100 µM
  TGI: > 100 µM
[50]
  GI50: 57.5 µM
  TGI: > 100 µM
[18]
  GI50: 15.9 µM
  TGI: 52.7 µM
[19]
  GI50: > 100 µM
  TGI: > 100 µM
[51]
  GI50: 23.2 µM
  TGI: 49 µM
[52]
  GI50: 7.26 µM
  TGI: 19.9 µM
[20]
  GI50: 50 µM
  TGI: > 100 µM
[21]
  GI50: > 100 µM
  TGI: > 100 µM
[22]
  GI50: 60.9 µM
  TGI: > 100 µM
[23]
  GI50: 1.47 µM
  TGI: 14.7 µM
[24]
  GI50: 8.69 µM
  TGI: 23.1 µM
[25]
  GI50: > 100 µM
  TGI: > 100 µM
[26]
  GI50: 64 µM
  TGI: > 100 µM
[27]
  GI50: 25.7 µM
  TGI: 76.6 µM
[28]
  GI50: 6.35 µM
  TGI: 36.4 µM
[29]
  GI50: 39.9 µM
  TGI: > 100 µM
[30]
  GI50: 0.362 µM
  TGI: 1.4 µM
[31]
  GI50: 0.32 µM
  TGI: 0.819 µM
[32]
  GI50: 2.87 µM
  TGI: 18.1 µM
[53]
  GI50: 22.2 µM
  TGI: 85.7 µM
[54]
  GI50: 11.7 µM
  TGI: 61.9 µM
[55]
  GI50: > 100 µM
  TGI: > 100 µM
[33]
  GI50: > 100 µM
  TGI: > 100 µM
[34]
  GI50: > 100 µM
  TGI: > 100 µM
[35]
  GI50: > 100 µM
  TGI: > 100 µM
[56]
  GI50: 25.5 µM
  TGI: 98 µM
[36]
  GI50: 21.3 µM
  TGI: 77 µM
[37]
  GI50: 68.8 µM
  TGI: > 100 µM
[57]
  GI50: 0.406 µM
  TGI: 2 µM
[38]
  GI50: 10 µM
  TGI: > 100 µM
[39]
  GI50: 29.6 µM
  TGI: > 100 µM
[40]
  GI50: 1.48 µM
  TGI: 3 µM
[41]
  GI50: > 100 µM
  TGI: > 100 µM
[58]
  GI50: 23.2 µM
  TGI: > 100 µM
[42]
  GI50: 45.9 µM
  TGI: > 100 µM
